Data: patent US20090093517A1, “BIS1,2,3,4-TETRAHYDROISOQUINOLINE DERIVATIVES AND THEIR USES AS PHARMACEUTICALS” (UNIVERSITE DE LIEGE, priority 2006, published 2009)

Target: apamin-sensitive sites of the SK channels
Test: Competition binding between 125I-apamin and bis-tetrahydroisoquinoline derivatives on rat cortical synaptosomes
Settings: for % of 125I-apamin displaced at 10 μM: 10 μM compound, ±10 pM 125I-apamin, rat cortical synaptosomes, 1 h at 0° C.
Description: These experiments are used to evaluate the potency of the bis-tetrahydroisoquinoline derivatives to interact with the apamin-sensitive sites of the SK channels, the selected target for which a blockade is expected to be useful in the treatment of Alzheimer's disease, Parkinson's disease, schizophrenia, cognitive dysfunction, or depression. Two reference compounds are also tested for comparison
Rats (male Wistar, ±250 g) were killed by decapitation and the brains were quickly removed and kept on ice during dissection. Crude cortex was dispersed in 0.32 M sucrose by using a Pottero homogenizer. After a first centrifugation at 1500×g for 10 min, the supernatant was centrifuged at 25000×g for 10 min. The resulting pellet was dispersed in 5 mL 0.32 M sucrose to be aliquoted. Protein concentration was determined by the method of Hartree with bovine serum albumin as a standard.^36
The buffer consisted of a 10 mM Tris-HCl (pH 7.5) solution containing 5.4 mM KCl and 0.1% bovine serum albumin. The radioligand was ^125I-apamin (Perkin-Elmer, Specific activity 81.4 TBq mmol^−1). Glass fibre filters (Whatman GF/C) used in these experiments were coated for 1 h in 0.5% polyethylenimine and then washed with 2.5 mL of the ice-cold buffer just before use. Binding experiments were always terminated as follows. Aliquots were filtered under reduced pressure through Whatman filters. Filters were rapidly washed twice with 2.5 mL of buffer. The radioactivity remaining on the filter was evaluated with a Packard Tri-Carb 1600TR liquid scintillation analyser with an efficacy of 69%. ^125I-apamin binding to the filters was also estimated in the absence of synaptosomes. This binding was also substracted from the total binding. Curve fitting was carried out using GraphPad Prism.
Saturation Binding Experiments—Synaptosomes (0.2 mg of protein/mL) were incubated with increasing concentrations of ^125I-apamin (25 μL) with 975 μL of incubation buffer for 1 h at 0° C. Samples were then filtered on Whatman GF/C filter and the radioactivity was measured as described above. Non specific binding was determined in parallel experiments in the presence of an excess of unlabeled apamin (0.1 μM) and subtracted from the total binding to obtain the specific binding.
Competition Experiments between ^125I-apamin and Bis-tetrahydroisoquinoline derivatives—Synaptosomes (0.2 mg of protein/mL) were incubated for 1 h at 0° C. with ±10 pM of ^125I-apamin (25 μL) and nine concentrations of bis-tetrahydroisoquinoline derivatives (10^−4 to 10^−7 M). Non specific binding was determined in the presence of an excess of unlabeled apamin (0.1 μM). Samples were then filtered on Whatman filter and the radioactivity was measured as described above.

| Compound | % of 125I-apamin displaced at 10 μM [%] | Ki (separated stereoisomers, rat cortical apamin sensitive sites, 125I-apamin) [nM] |
| --- | --- | --- |
| Cc1cc(N)c2ccccc2[n+]1CCCCCCCCCC[n+]1c(C)cc(N)c2ccccc21 [DQ+, Dequalinium, reference compound] |  | 221 ± 11 |
| COc1ccc(C[C@H]2c3cc(OC)c(OC)cc3CC[N+]2(C)C)cc1OC [NML, N-methyl-laudanosine, reference compound] | 54 |  |
| m-Bis[1-(2-methyl-1,2,3,4-tetrahydroisoquinolyl)]-xylene hydrochloride [Compound 4k] | 29 |  |
| o-bis[1-(2-methyl-1,2,3,4-tetrahydroisoquinolyl)]-xylene hydrochloride [Compound 4j] | 19 |  |
| p-bis[1-(2-methyl-1,2,3,4-tetrahydroisoquinolyl)]-xylene hydrochloride [Compound 4l] | 27 |  |
| p-bis[1-(6,7,8-trimethoxy-2-methyl-1,2,3,4-tetrahydroisoquinolyl)]-xylene [Compound 4r] | 51 |  |

More lines, main results first:

| % of 125I-apamin displaced at 10 μM [%] | Compound | Ki (separated stereoisomers, rat cortical apamin sensitive sites, 125I-apamin) [nM] |
| --- | --- | --- |
| 60 | m-bis[1-(6,7,8-trimethoxy-2-methyl-1,2,3,4-tetrahydroisoquinolyl)]-xylene hydrochloride [Compound 4q] |  |
| 74 | m-bis[1-(6,7-dimethoxy-2-methyl-1,2,3,4-tetrahydroisoquinolyl)]-xylene hydrochloride [Compound 4n] |  |
| 28 | o-bis[1-(6,7,8-trimethoxy-2-methyl-1,2,3,4-tetrahydroisoquinolyl)]-xylene hydrochloride [Compound 4p] |  |
| 62 | o-bis[1-(6,7-dimethoxy-2-methyl-1,2,3,4-tetrahydroisoquinolyl)]-xylene hydrochloride [Compound 4m] |  |
